Where a name gives a salt, the structure may show the parent alone.
How the values were obtained:
NLRP3 [1] = target: T1, NLRP3 (Homo sapiens, UniProt Q96P20); assay: THP-1 cells pyroptosis assay; type: cell-based; set-up: Seed THP-1 cells (25,000 cells/well) containing 1.0 μg/ml LPS; host or cells: THP-1 cells, LPS-primed, nigericin-stimulated; settings: THP-1 cells, 1.0 μg/ml LPS, compound 3 hrs, nigericin 5 μM 1 hr, resazurin readout; read-out: THP IC50
Method in brief: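 THP-1 cells (25,000/well) in serum-free RPMI with 1.0 μg/ml LPS, treated with compound (8-point half-log dilution, 10 μM top, 0.1% DMSO), then nigericin 5 μM final. Viability read by resazurin (100 μM final, 1-2 h, 37° C) fluorescence Ex 560/Em 590 nm; IC50 from 4-parameter variable-slope fit.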

NLRP3 [2] = target: T1, NLRP3; assay: Human whole blood IL1β release assay; type: cell-based; set-up: Human whole blood in Li-heparin tubes was obtained from healthy donors; from tissue; host or cells: human whole blood from healthy donors, LPS-primed, nigericin-stimulated; settings: human whole blood, 1 μg/ml LPS, compound 3 hrs, nigericin 10 μM 1 hr, IL-1β AlphaLisa; read-out: HWB IC50
Protocol: Human Whole Blood IL1β Release Assay
For systemic delivery, the ability to inhibit NLRP3 when the compounds are present within the bloodstream is of great importance. For this reason, the NLRP3 inhibitory activity of a number of compounds in human whole blood was investigated in accordance with the following protocol.
Human whole blood in Li-heparin tubes was obtained from healthy donors from a volunteer donor panel. • 1. Plate out 80 μl of whole blood containing 1 μg/ml of LPS in 96-well, clear bottom cell culture plate (Corning #3585) • 2. Add 10 μl compound (8 points half-log dilution with 10 μM top dose) or vehicle (DMSO 0.1% FAC) to the appropriate wells • 3. Incubate for 3 hrs at 37° C., 5% CO2 • 4. Add 10 μl Nigericin (Sigma #N7143) (10 μM FAC) to all wells • 5. Incubate for 1 hr at 37° C., 5% CO2 • 6. At the end of the incubation period, spin plates at 300 xg for 5 mins to pellet cells and remove 20 μl of supernatant and add to 96-well v-bottom plates for IL-1β analysis (note: these plates containing the supernatants can be stored at −80° C. to be analysed at a later date) • 7. IL-1β was measured according to the manufacturer protocol (Perkin Elmer-AlphaLisa IL-1 Kit AL220F-5000) • 8. IC50 data is fitted to a non-linear regression equation (log inhibitor vs response-variable slope 4-parameters)

T1 sequence (Q96P20 whole entry): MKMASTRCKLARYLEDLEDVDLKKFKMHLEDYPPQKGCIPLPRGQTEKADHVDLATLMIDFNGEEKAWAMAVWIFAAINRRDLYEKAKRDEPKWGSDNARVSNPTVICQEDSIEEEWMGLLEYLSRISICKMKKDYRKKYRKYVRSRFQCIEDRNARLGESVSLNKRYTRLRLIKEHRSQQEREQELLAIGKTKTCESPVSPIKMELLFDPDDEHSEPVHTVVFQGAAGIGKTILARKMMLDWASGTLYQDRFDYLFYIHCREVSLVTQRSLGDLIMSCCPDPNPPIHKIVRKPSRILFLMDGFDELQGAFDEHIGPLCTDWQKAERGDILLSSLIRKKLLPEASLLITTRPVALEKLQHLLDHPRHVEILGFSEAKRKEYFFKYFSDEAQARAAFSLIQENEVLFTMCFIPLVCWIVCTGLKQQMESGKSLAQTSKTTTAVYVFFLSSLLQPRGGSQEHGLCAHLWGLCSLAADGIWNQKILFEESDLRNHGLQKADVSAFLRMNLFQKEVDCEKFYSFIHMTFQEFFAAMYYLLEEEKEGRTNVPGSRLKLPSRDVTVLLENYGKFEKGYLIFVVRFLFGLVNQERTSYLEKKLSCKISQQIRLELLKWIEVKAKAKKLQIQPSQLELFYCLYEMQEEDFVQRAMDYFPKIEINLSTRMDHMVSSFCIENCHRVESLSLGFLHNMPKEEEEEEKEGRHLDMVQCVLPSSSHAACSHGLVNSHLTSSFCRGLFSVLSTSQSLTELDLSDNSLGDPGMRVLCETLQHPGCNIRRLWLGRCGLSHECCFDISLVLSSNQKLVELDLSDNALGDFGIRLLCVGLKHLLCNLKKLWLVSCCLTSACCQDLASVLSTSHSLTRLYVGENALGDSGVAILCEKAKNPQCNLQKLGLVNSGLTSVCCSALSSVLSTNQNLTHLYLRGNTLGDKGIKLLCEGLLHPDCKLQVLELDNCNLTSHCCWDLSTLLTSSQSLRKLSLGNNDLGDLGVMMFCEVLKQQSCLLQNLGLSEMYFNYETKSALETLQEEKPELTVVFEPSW

IC50 (NLRP3 [1]) [nM] | IC50 (NLRP3 [2]) [nM] | Structure (SMILES)
< 640 | < 1600 | CN(C)C1(c2cc(S(=O)(=O)NC(=O)Nc3c4c(cc5c3CCC5)CCC4)nn2C)COC1 [Example 122, 5-(3-(Dimethylamino)oxetan-3-yl)-N-((1,2,3,5,6,7-hexahydro-s-indacen-4-yl)carbamoyl)-1-methyl-1H-pyrazole-3-sulfonamide]
< 640 | < 3200 | COCCN(C)Cc1cc(S(=O)(=O)NC(=O)Nc2c3c(cc4c2CCC4)CCC3)nn1C [Example 126, N-((1,2,3,5,6,7-Hexahydro-s-indacen-4-yl)carbamoyl)-5-(((2-methoxyethyl)(methyl)amino)methyl)-1-methyl-1H-pyrazole-3-sulfonamide, sodium salt]
< 160 | < 800 | CC(=O)N(C)Cc1cc(S(=O)(=O)NC(=O)Nc2c3c(cc4c2CCC4)CCC3)nn1C(C)C [Example 129, N-((3-(N-((1,2,3,5,6,7-Hexahydro-s-indacen-4-yl)carbamoyl)sulfamoyl)-1-isopropyl-1H-pyrazol-5-yl)methyl)-N-methylacetamide]
< 2560 | < 1600 | CC(C)c1cccc(C(C)C)c1NC(=O)NS(=O)(=O)c1cc(C(=O)N2CC(F)C2)n(C)n1 [Example 139, N-((2,6-Diisopropylphenyl)carbamoyl)-5-(3-fluoroazetidine-1-carbonyl)-1-methyl-1H-pyrazole-3-sulfonamide, sodium salt]
< 160 | < 1600 | CC(C)c1cccc(C(C)C)c1NC(=O)NS(=O)(=O)c1cc(C(=O)N(C)C2CC2)n(C)n1 [Example 143, N-Cyclopropyl-3-(N-((2,6-diisopropylphenyl)carbamoyl)sulfamoyl)-N,1-dimethyl-1H-pyrazole-5-carboxamide]
< 640 | < 10000 | CC(C)c1ccc(C(C)C)c(NC(=O)NS(=O)(=O)c2cc(C(=O)N(C)C)n(C)n2)c1 [Example 144, 3-(N-((2,5-Diisopropylphenyl)carbamoyl)sulfamoyl)-N,N,1-trimethyl-1H-pyrazole-5-carboxamide, sodium salt]
< 160 | < 800 | CC(C)c1cc(F)cc(C(C)C)c1NC(=O)NS(=O)(=O)c1cc(C(=O)N(C)C(C)C)n(C)n1 [Example 147, 3-(N-((4-Fluoro-2,6-diisopropylphenyl)carbamoyl)sulfamoyl)-N-isopropyl-N,1-dimethyl-1H-pyrazole-5-carboxamide]
< 640 | < 800 | CCN(C)C(=O)c1cc(S(=O)(=O)NC(=O)Nc2c(C(C)C)cc(F)cc2C(C)C)nn1C [Example 149, N-Ethyl-3-(N-((4-fluoro-2,6-diisopropylphenyl)carbamoyl)sulfamoyl)-N,1-dimethyl-1H-pyrazole-5-carboxamide, sodium salt]
< 640 | < 400 | CNC(=O)c1cc(S(=O)(=O)NC(=O)Nc2c(C(C)C)cc(F)cc2C(C)C)nn1C [Example 150, 3-(N-((4-Fluoro-2,6-diisopropylphenyl)carbamoyl)sulfamoyl)-N,1-dimethyl-1H-pyrazole-5-carboxamide]
< 640 | < 400 | CC(C)c1cccc(C(C)C)c1NC(=O)NS(=O)(=O)c1cc(C(=O)N2CCC2)n(C)n1 [Example 151, 5-(Azetidine-1-carbonyl)-N-((2,6-diisopropylphenyl)carbamoyl)-1-methyl-1H-pyrazole-3-sulfonamide]
< 160 | < 800 | CN(C(=O)c1cc(S(=O)(=O)NC(=O)Nc2c3c(cc4c2CCC4)CCC3)nn1C)C1CC1 [Example 152, N-Cyclopropyl-3-(N-((1,2,3,5,6,7-hexahydro-s-indacen-4-yl)carbamoyl)sulfamoyl)-N,1-dimethyl-1H-pyrazole-5-carboxamide]

Structure (SMILES) | IC50 (NLRP3 [1]) [nM] | IC50 (NLRP3 [2]) [nM]
CNC(=O)c1cc(S(=O)(=O)NC(=O)Nc2c(C(C)C)cc(Cl)cc2C(C)C)nn1C [Example 132, 3-(N-((4-chloro-2,6-diisopropylphenyl)carbamoyl)sulfamoyl)-N,1-dimethyl-1H-pyrazole-5-carboxamide] | < 640 | < 3200
